Measurements: PubChem BioAssay (NCI)
Values joined by “and” are separate entries in the source; they are usually repeats but may differ in a detail not shown here. Identical values can stand only once.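 Compound exposure: 48 hours, 5 concentrations, 96-well plates. Here, GI50 denotes the concentration required for 50% inhibition of growth. TGI marks complete inhibition of growth.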

Each compound was assayed on MDA-MB-468 breast (assay: inhibition of tumour cell growth, NCI panel, 48 h).

| Structure (SMILES) | GI50 | TGI |
| --- | --- | --- |
| CCCCCCCCCCCCCCCCCCNCc1ccc(Cl)cc1 | 7870 nM | 24.8 µM |
| CC[C@@]1(OC(=O)CN(C)C)C(=O)OCc2c1cc1n(c2=O)Cc2cc3c(N)cccc3nc2-1 | 12.8 nM | 0.035 µM |
| Cc1ccc(S(=O)(=O)OCC#CCOS(=O)(=O)c2ccc(C)cc2)cc1 | 1850 nM | 3.88 µM |
| CS(=O)(=O)Nc1cc(-c2ccc3ncnc(Nc4ccc(F)c(Cl)c4)c3c2)cnc1Cl | 236 nM and 210 nM | 1.29 µM and 1.02 µM |
| CNC(=O)c1cc(Oc2cccc3nc(NC(=O)Nc4cc(C(F)(F)F)cc(C(F)(F)F)c4)ccc23)ccn1 | 3400 nM | 26.6 µM |
| Cc1ccc(C(=O)NCCCOc2ccc(N3C(N)=NC(N)=NC3(C)C)cc2Cl)cc1S(=O)(=O)F | > 100000 nM | > 100 µM |
| COCCOCCOCc1n(Cc2ccc3ccccc3c2)c2ccccc2[n+]1Cc1ccc2ccccc2c1 | 110 nM | 0.659 µM |
| Nc1c(C(=O)Nc2ccccn2)sc2nc3c(cc12)C(O)CCC3 (stereo not drawn) | 1080 nM | > 50 µM |
| O=S(=O)(NCCNc1nccc(-c2c(-c3ccc(F)c(O)c3)nc3sccn23)n1)c1ccc(Cl)cc1 | 2170 nM | > 50 µM |
| COc1cccc(/C=C/c2nc3c(cnn3-c3ccccc3)c(=O)[nH]2)c1 | 670 nM | > 100 µM |
| N#Cc1ccc(-c2c(-c3ncn[nH]3)sc(N3CCOCC3)c2C#N)c(F)c1 | 242 nM | 1.55 µM |
| O=[N+]([O-])c1cccc(-c2nc(-c3ccc(Cl)cc3Cl)cn2-c2ccccc2)c1 | 1570 nM | 6.75 µM |
| O=C(Nc1cccc(-n2cc(-c3ccncc3)c(-c3ccc(O)c(Cl)c3)n2)c1)c1ccc2c(c1)OCCO2 | 6880 nM | > 100 µM |
| CC(C)(C)c1cc(C(=O)Nc2ccc(C(=O)NCCN)cc2)cc(C(C)(C)C)c1 | 1820 nM | 3.6 µM |
| NCCCCCNc1noc(Cc2c[nH]c3cc(Br)ccc23)n1 | 2130 nM | 5.15 µM |
| COc1ccc(C(C)c2cc(OC)c(OC)c(OC)c2)cc1 (stereo not drawn) | 94.5 nM | > 50 µM |
| C[C@]12CC[C@@H]3c4ccc(O)cc4CC[C@H]3[C@@H]1CC[C@@H]2NS(=O)(=O)c1ccc(Br)cc1 | 3570 nM | 11.2 µM |
| N#Cc1cnc2cc(OC[C@@H](O)CO)c(NC(=O)C3CCCC3)cc2c1Nc1ccc(OCc2cccc(F)c2)c(Cl)c1 | 611 nM | 2.5 µM |
| O=C(O)c1cc2ccccc2c2c3c(ccc12)OCO3 | 153000 nM | 460 µM |
| Clc1ccc(C2CC(c3cccc(Nc4ccncc4)c3)=NN2c2ccc(Cl)cc2)cc1 (stereo not drawn) | 1400 nM | 2.92 µM |
| Cc1cc(C(=O)/C=C/c2ccc[nH]2)ccc1-n1ccc(C(F)(F)F)n1 | 3760 nM | 34.9 µM |
| O=C(NCCN1CCCC1)c1ccc(-c2nc3ccc4[nH]ncc4c3c3c2CCCC3)cc1 | 356 nM | 1.38 µM |

| Structure (SMILES) | GI50 | TGI |
| --- | --- | --- |
| O=C1/C=C/[C@@H](O)[C@@H]2C[C@@H](O)C[C@H]2/C=C/CCC[C@H](CCc2ccc3ncccc3c2)O1 | 65.6 nM | 0.495 µM |
| CN1CCN(c2ccc(OC(F)(F)F)c(Nc3ncc4c(n3)-c3c(c(C(N)=O)nn3CCO)CC4)c2)CC1 | < 10 nM and 32 nM | 11.5 µM |
| Cc1ccc(C(=O)c2sc3nc4c(cc3c2N)CCCC4)c(C)c1 | 210 nM | 8.42 µM |
| CN(C)C(=O)OCc1nc2c(N3CCOCC3)nc(-c3ccccc3)nc2n1C | 573 nM | 1.82 µM |
| O=C1Nc2cc(-c3cccc(O)c3)ccc2/C1=C/c1ccc[nH]1 | 245 nM | 0.805 µM |
| Nc1ncnc2c1ncn2C1OC(COS(N)(=O)=O)C(O)C1O (stereo not drawn) | 2.1 nM and 20.1 nM | 0.00465 µM and 0.0422 µM |
| CO[C@@H]1CCN(c2nccc(Nc3cc4c(C(C)C)ccc(N5CC(CS(C)(=O)=O)[C@H]5C)c4cn3)n2)C[C@@H]1F (stereo partly drawn) | 544 nM | 4.11 µM |
| Cc1cc(-c2nnc(/C=C/c3ccc4c(c3)OCO4)o2)n[nH]1 | 10900 nM | 32.7 µM |
| O=c1c2cc(-c3ccc(F)cc3F)ccc2n(Nc2ccccc2)c(=O)n1-c1cccc(C(F)(F)F)c1 | 1990 nM | 5.57 µM |
| Cc1ccc(Nc2cc(Cl)c([N+](=O)[O-])cc2[N+](=O)[O-])cc1 | 1800 nM | 3.58 µM |
| CCOC(=O)C(Cc1c[nH]c2cc(N(CCO)CCO)ccc12)(NC(C)=O)C(=O)OCC | 793000 nM | > 1000 µM |
| CCCOc1cc2ccccc2cc1C(=O)Nc1nc(NC)c2c(ccc3nccc32)[nH]1 | 275 nM | 1.01 µM |
| C/C=C/C/C=C/[C@H](C)C[C@H](O)[C@@H]1C[C@@H]2O[C@H]2/C=C/[C@@H]2OC(C)(C)O[C@H]2/C=C/C[C@H](C)CC(=O)O1 | 17300 nM | > 100 µM |
| COc1ccc(/C(C)=N/NC(=O)CSc2nc3ccccc3c(=O)n2CCc2ccc(S(N)(=O)=O)cc2)cc1 | 2300 nM | 4.85 µM |
| CCOC(=O)Nc1nc2ccccc2[nH]1 | 2750 nM and 2070 nM | > 89.9 µM and 9.09 µM |
| COc1cccc(-c2nn(-c3ccccc3)cc2-c2ccnc(NCCCNC(=O)c3cccc(C(F)(F)F)c3)c2)c1 | 1950 nM | 7.37 µM |
| NCCCOc1cc2ccccc2cc1C(=O)Nc1ccc(Cl)cc1OC(=O)c1cc2ccccc2cc1OCCCN | 221 nM | 0.573 µM |
| COc1cc(Cl)cc(-c2nn(-c3cccc(NC(=O)Nc4cccc(C(F)(F)F)c4)c3)cc2-c2ccncc2)c1 | 1050 nM | 4.99 µM |
| Cc1nc(-c2cc3ccccc3oc2=O)ccc1C(=O)/C=C/c1ccccn1 | > 100000 nM | > 100 µM |
| O=C1CC[C@H](N2Cc3c(OCc4ccc(CN5CCOCC5)cc4)cccc3C2=O)C(=O)N1 | > 100000 nM | > 100 µM |
| O=C(NCCc1ccccc1)Nc1ccc2cc3ccc(NC(=O)NCCc4ccccc4)cc3nc2c1 | 810 nM | 2.27 µM |
| O=C(CSCC(=O)N/N=C/c1ccccc1O)N/N=C\c1ccccc1O | 1260 nM | 5.85 µM |
